This is an account of results in US9815796B2 (Merck Sharp & Dohme Corp., priority 2013, dated 2017).

Where two headings read alike, the source gives them in different places.

The target in one assay is human PDE2A1 (Homo sapiens (Human), UniProt O00408). As to the kind of experiment: IMAP FP PDE selectivity panel, human PDE2A1. It counts as biochemical. Put shortly: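 GST-tagged human PDE2A1 expressed in insect cells, run at room temperature for 60 min with 50 nM FAM-cAMP containing 1000 nM cGMP, pH 7.2 Tris/MgCl2 buffer. IMAP fluorescence polarization read after binding step.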

In a further assay the target is Rhesus PDE2A3 (Macaca mulatta, UniProt B3VTJ2). Put plainly: PDE2 fluorescence polarization (IMAP FP) inhibition assay, rhesus enzyme. It is filed as biochemical, rhesus macaque. Put shortly:
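Rhesus PDE2A3 came from lysate of transiently transfected AD293 cells, diluted to give 20% substrate conversion. Substrate was 50 nM FAM-cAMP with 1 uM cGMP activator in Tris pH 7.2/MgCl2 buffer, run 60 min at room temperature over 10-point 3-fold dilutions in 1% DMSO. Read-out was IMAP fluorescence polarization (mP) after ≥1 h binding.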
(Polarisation of emitted light reports the rotation of a fluorescent probe.)

The mark [1] stands for this setting: Human PDE2, Lab A, read-out: Human PDE2 Ki (nM) - Lab A.
Where [2] appears, read: Rhesus PDE2, Lab A, read-out: Rhesus PDE2 Ki (nM) - Lab A.
Where [3] appears, read: Human PDE2, Lab B, read-out: Human PDE2 Ki (nM) - Lab B.
Setting [4] is: Rhesus PDE2, Lab B, read-out: Rhesus PDE2 Ki (nM) - Lab B.

Sequence of human PDE2A1 (O00408 other isoform, or with tags, fused parts or gaps): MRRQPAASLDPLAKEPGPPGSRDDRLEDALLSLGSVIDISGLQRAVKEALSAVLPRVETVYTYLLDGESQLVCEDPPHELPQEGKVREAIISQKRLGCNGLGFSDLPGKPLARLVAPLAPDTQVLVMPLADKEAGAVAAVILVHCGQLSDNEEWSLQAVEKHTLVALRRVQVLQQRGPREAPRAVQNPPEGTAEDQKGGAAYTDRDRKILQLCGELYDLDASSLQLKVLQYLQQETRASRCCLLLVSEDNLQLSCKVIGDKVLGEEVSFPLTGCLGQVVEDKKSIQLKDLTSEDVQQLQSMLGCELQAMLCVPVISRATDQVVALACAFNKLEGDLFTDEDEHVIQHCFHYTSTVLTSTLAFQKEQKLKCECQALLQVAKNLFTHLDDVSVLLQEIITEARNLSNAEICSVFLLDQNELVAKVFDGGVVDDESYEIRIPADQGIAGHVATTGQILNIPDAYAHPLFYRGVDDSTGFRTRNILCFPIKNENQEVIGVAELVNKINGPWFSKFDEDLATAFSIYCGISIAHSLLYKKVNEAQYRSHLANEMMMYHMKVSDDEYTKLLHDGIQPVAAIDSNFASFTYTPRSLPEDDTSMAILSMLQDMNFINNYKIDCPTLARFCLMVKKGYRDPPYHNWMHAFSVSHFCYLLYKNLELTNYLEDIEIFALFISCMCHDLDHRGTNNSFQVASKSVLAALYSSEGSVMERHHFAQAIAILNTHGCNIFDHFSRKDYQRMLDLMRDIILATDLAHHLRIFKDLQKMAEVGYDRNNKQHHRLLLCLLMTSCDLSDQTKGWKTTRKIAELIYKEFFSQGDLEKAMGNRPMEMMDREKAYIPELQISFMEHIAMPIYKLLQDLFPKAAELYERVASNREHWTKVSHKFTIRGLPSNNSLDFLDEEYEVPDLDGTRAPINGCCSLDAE
Sequence of Rhesus PDE2A3 (B3VTJ2 1-941): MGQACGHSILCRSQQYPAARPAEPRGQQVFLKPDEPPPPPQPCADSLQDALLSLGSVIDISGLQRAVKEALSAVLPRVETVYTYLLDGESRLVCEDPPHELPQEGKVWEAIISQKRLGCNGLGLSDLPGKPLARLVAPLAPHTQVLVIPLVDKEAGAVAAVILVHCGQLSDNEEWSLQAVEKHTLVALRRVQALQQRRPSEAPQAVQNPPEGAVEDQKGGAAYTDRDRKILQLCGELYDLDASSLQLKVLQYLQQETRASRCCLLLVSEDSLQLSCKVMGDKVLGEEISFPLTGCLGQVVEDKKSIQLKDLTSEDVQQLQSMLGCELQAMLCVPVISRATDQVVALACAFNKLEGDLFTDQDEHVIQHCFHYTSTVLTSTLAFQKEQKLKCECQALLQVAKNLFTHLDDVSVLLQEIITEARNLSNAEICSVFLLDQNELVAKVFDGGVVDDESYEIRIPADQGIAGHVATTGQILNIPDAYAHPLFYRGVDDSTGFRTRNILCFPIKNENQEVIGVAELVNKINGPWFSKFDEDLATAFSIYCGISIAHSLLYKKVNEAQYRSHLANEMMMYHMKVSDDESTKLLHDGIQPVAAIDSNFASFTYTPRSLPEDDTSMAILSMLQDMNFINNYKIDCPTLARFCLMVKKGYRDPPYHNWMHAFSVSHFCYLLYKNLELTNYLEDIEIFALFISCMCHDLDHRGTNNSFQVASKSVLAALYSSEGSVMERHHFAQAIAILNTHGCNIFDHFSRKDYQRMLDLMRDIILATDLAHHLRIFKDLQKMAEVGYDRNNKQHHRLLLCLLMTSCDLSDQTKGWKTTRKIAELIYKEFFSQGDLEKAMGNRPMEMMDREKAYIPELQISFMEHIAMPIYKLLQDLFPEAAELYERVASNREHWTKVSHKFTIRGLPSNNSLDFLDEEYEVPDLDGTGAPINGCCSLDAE

What is called Ki is a dissociation constant, usually derived from enzyme kinetics or from competition with a known ligand. As to `CC(C)(NC(=O)c1cc(=O)[nH]c(C2CC2)n1)c1ccc(C(F)(F)F)c(F)c1` [Example 200, 2-cyclopropyl-N-{1-[3-fluoro-4-(trifluoromethyl)phenyl]-1-methylethyl}-6-oxo-1,6-dihydropyrimidine-4-carboxamide], the results for the Ki at human PDE2A1 (setting [1]) and at Rhesus PDE2A3 (setting [2]) were 9.2 nM and 16 nM, respectively.

`O=C(NC1(c2ccc(C(F)(F)F)cc2)CCC1)c1cc(=O)[nH]c(C2CC2)n1` [Example 143, 2-cyclopropyl-6-oxo-N-{1-[4-(trifluoromethyl)phenyl]cyclobutyl}-1,6-dihydropyrimidine-4-carboxamide]: the Ki on human PDE2A1 (setting [1]) worked out at 11 nM; at Rhesus PDE2A3 (setting [2]), 21 nM.

For `C[C@@H](NC(=O)c1cc(=O)[nH]c(C2CC2)n1)c1ccc(SC(F)(F)F)cc1` [Example 15, (R)-2-cyclopropyl-6-oxo-N-(1-(4-((trifluoromethyl)thio)phenyl)ethyl)-1,6-dihydro pyrimidine-4-carboxamide], the values for the Ki on human PDE2A1 (setting [1]) and on Rhesus PDE2A3 (setting [2]) were 3.5 nM and 4.4 nM, respectively.

On to `Cc1nc(C(=O)N[C@@H](c2ccc(OC(F)(F)F)cc2)C(C)C)cc(=O)[nH]1` [Example 32, 2-methyl-N-{(1R)-2-methyl-1-[4-(trifluoromethoxy)phenyl]propyl}-6-oxo-1,6-dihydropyrimidine-4-carboxamide], for which the Ki on human PDE2A1 (setting [1]) was found to be 5.1 nM; at Rhesus PDE2A3 (setting [2]) it was 11 nM.

For `CC[C@@H](NC(=O)c1cc(=O)[nH]c(C2CC2)n1)c1ccc(S(F)(F)(F)(F)F)cc1` [Example 242, 2-cyclopropyl-6-oxo-N-{(1R)-1-[4-(pentafluoro-λ^6-sulfanyl)phenyl]propyl}-1,6-dihydropyrimidine-4-carboxamide], the Ki on human PDE2A1 (setting [3]) stood at 9.2 nM; on Rhesus PDE2A3 (setting [2]), 5 nM; at Rhesus PDE2A3 (setting [4]) it was 10 nM.

`CC(C)[C@@H](NC(=O)c1cc(=O)[nH]c(-c2ncccn2)n1)c1ccc(SC(F)(F)F)c(F)c1` [Example 245, N-[(1R)-1-{3-fluoro-4-[(trifluoromethyl)sulfanyl]phenyl}-2-methylpropyl]-6-oxo-1,6-dihydro-2,2′-bipyrimidine-4-carboxamide]: the inhibitory constant (Ki) at human PDE2A1 (setting [3]) is 1.3 nM; on Rhesus PDE2A3 (setting [2]), 1.4 nM; on Rhesus PDE2A3 (setting [4]), 1.3 nM.

Take `C[C@@H](NC(=O)c1cc(=O)[nH]c(-c2ncccn2)n1)c1ccc(-c2ccccc2)cc1` [Example 287, N-[(1R)-1-biphenyl-4-ylethyl]-6-oxo-1,6-dihydro-2,2′-bipyrimidine-4-carboxamide]: the inhibition constant Ki stood at 28 nM at human PDE2A1 (setting [1]) and 45 nM at Rhesus PDE2A3 (setting [2]).

As for `COc1ccc2cc(C(C)NC(=O)c3cc(=O)[nH]c(C4CC4)n3)ccc2c1` (centres unmarked) [Example 192, 2-cyclopropyl-N-[1-(6-methoxynaphthalen-2-yl)ethyl]-6-oxo-1,6-dihydropyrimidine-4-carboxamide], the results for the Ki on human PDE2A1 (setting [1]) and on Rhesus PDE2A3 (setting [2]) were 81 nM and 151 nM, respectively.

In the case of `COc1ccc(C(C)(C)c2nc(C(=O)N[C@@H](c3ccc(OC(F)(F)F)c(F)c3)C(C)(C)C)cc(=O)[nH]2)cc1` [Example 487, N-{(1R)-1-[3-fluoro-4-(trifluoromethoxy)phenyl]-2,2-dimethylpropyl}-2-[1-(4-methoxyphenyl)-1-methylethyl]-6-oxo-1,6-dihydropyrimidine-4-carboxamide], the Ki on human PDE2A1 (setting [3]) stood at 63 nM; at Rhesus PDE2A3 (setting [4]), 61 nM.

Consider `O=C(NC1(c2ccc(C(F)(F)F)cc2)CC1)c1cc(=O)[nH]c(C2CC2)n1` [Example 292, 2-cyclopropyl-6-oxo-N-{1-[4-(trifluoromethyl)phenyl]cyclopropyl}-1,6-dihydropyrimidine-4-carboxamide], for which the Ki worked out at 12 nM on human PDE2A1 (setting [1]) and 14 nM at Rhesus PDE2A3 (setting [2]).

With `O=C(NC1(c2ccc(OC(F)(F)F)c(F)c2)CC1)c1cc(=O)[nH]c(C2CC2)n1` [Example 201], the Ki was determined as 2.8 nM at human PDE2A1 (setting [1]) and 4.4 nM on Rhesus PDE2A3 (setting [2]).

With `CC(C)[C@@H](NC(=O)c1cc(=O)[nH]c(C2CC2)n1)c1ccc(SC(F)(F)F)c(F)c1` [Example 244, 2-cyclopropyl-N-[(1R)-1-{3-fluoro-4-[(trifluoromethyl)sulfanyl]phenyl}-2-methylpropyl]-6-oxo-1,6-dihydropyrimidine-4-carboxamide], the values for the Ki at human PDE2A1 (setting [3]), on Rhesus PDE2A3 (setting [2]) and at Rhesus PDE2A3 (setting [4]) were 3 nM, 0.99 nM and 2.4 nM, respectively.

For `CC[C@@H](NC(=O)c1cc(=O)[nH]c(-c2ccccc2)n1)c1ccc(OC(F)(F)F)cc1` [Example 179, 6-oxo-2-phenyl-N-{(1R)-1-[4-(trifluoromethoxy)phenyl]propyl}-1,6-dihydropyrimidine-4-carboxamide], the Ki came to 2.2 nM at human PDE2A1 (setting [1]) and 4 nM on Rhesus PDE2A3 (setting [2]).

Consider `O=C(NC1(c2ccc(SC(F)(F)F)cc2)CC1)c1cc(=O)[nH]c(C2CC2)n1` [Example 199, 2-cyclopropyl-6-oxo-N-(1-{4-[(trifluoromethyl)sulfanyl]phenyl}cyclopropyl)-1,6-dihydropyrimidine-4-carboxamide], for which the values for the Ki on human PDE2A1 (setting [1]) and at Rhesus PDE2A3 (setting [2]) were 7 nM and 12 nM, respectively.

Turning to `C[C@@H](NC(=O)c1cc(=O)[nH]c(C2CC2)n1)c1cc(F)c(C(F)(F)F)cc1F` [Example 440, 2-cyclopropyl-N-{(1R)-1-[2,5-difluoro-4-(trifluoromethyl)phenyl]ethyl}-6-oxo-1,6-dihydropyrimidine-4-carboxamide], the inhibition constant Ki on human PDE2A1 (setting [3]) is 60 nM; on Rhesus PDE2A3 (setting [4]), 51 nM.

`Cc1nc(C(=O)N[C@@H](c2ccc(C3CC3)c(F)c2)C(C)C)cc(=O)[nH]1` [Example 621, N-[(1R)-1-(4-cyclopropyl-3-fluorophenyl)-2-methylpropyl]-2-methyl-6-oxo-1,6-dihydropyrimidine-4-carboxamide]: the figures for the Ki at human PDE2A1 (setting [3]) and at Rhesus PDE2A3 (setting [4]) were 5.2 nM and 5.1 nM, respectively.

On to `CC(NC(=O)c1cc(=O)[nH]c(-c2ncccn2)n1)c1ccc(Br)cc1` (centres unmarked) [Example 85, N-[1-(4-bromophenyl)ethyl]-6-oxo-1,6-dihydro-2,2′-bipyrimidine-4-carboxamide], for which the inhibition constant (Ki) on human PDE2A1 (setting [1]) was 41 nM; at Rhesus PDE2A3 (setting [2]), 60 nM.

For the compound `Cc1nc(C(=O)NC(C)c2ccc(C(F)(F)F)cc2C)cc(=O)[nH]1` (centres unmarked) [Example 25, 2-methyl-N-{1-[2-methyl-4-(trifluoromethyl)phenyl]ethyl}-6-oxo-1,6-dihydropyrimidine-4-carboxamide], the Ki at human PDE2A1 (setting [1]) was found to be 663 nM; on Rhesus PDE2A3 (setting [2]) it was 1140 nM.

Regarding `Cc1nc(C(=O)NC(C)(c2ccc(S(F)(F)(F)(F)F)cc2)C(C)C)cc(=O)[nH]1` (racemic) [Example 619, N-{1,2-dimethyl-1-[4-(pentafluoro-λ^6-sulfanyl)phenyl]propyl}-2-methyl-6-oxo-1,6-dihydropyrimidine-4-carboxamide], the figures for the Ki on human PDE2A1 (setting [3]) and on Rhesus PDE2A3 (setting [4]) were 67 nM and 62 nM, respectively.

Regarding `Cc1nc(C(=O)NC(C)(C)c2ccc(C(F)(F)F)c(F)c2)cc(=O)[nH]1` [Example 43, N-{1-[3-fluoro-4-(trifluoromethyl)phenyl]-1-methylethyl}-2-methyl-6-oxo-1,6-dihydropyrimidine-4-carboxamide], the Ki was 18 nM at human PDE2A1 (setting [1]), 15 nM on human PDE2A1 (setting [3]), 20 nM at Rhesus PDE2A3 (setting [2]) and 14 nM on Rhesus PDE2A3 (setting [4]).

As to `Cc1nc(C(=O)NC(C)(C)c2ccc(OC(F)(F)F)cc2)cc(=O)[nH]1` [Example 273, 2-methyl-N-{1-methyl-1-[4-(trifluoromethoxy)phenyl]ethyl}-1,6-oxo-1,6-dihydropyrimidine-4-carboxamide], the Ki on human PDE2A1 (setting [1]) came to 278 nM; on Rhesus PDE2A3 (setting [2]), 304 nM.
